Active and inactive are the calls of the source. The calls are words filed in the database; no cut-off is given here.

The source of these data is ChEMBL document CHEMBL3217672, “Optimization of a series of dipeptides with a P3 -neopentyl asparagine residue as non-covalent inhibitors of the chymotrypsin-like activity of human 20S proteasome” (Medchemcomm, 2012).

Experiment [1] in a line: Cytotoxicity against human Calu6 cells after 72 hrs by luminescence assay. Type of experiment: functional. Particulars: Calu-6, 72 h, read-out: LC50 (the source's name).
Experiment [2] concerns the target T1, Proteasome Macropain subunit MB1 (Homo sapiens, UniProt P28074).
T1 sequence (P28074 whole entry): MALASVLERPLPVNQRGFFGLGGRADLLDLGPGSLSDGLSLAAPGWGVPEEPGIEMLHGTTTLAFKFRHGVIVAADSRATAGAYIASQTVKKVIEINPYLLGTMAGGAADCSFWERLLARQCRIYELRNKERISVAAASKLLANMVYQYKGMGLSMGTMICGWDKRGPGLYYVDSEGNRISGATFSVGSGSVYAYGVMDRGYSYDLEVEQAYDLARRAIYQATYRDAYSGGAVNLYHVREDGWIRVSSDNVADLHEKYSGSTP
In words: Inhibition of 20S proteasome beta5 subunit in human erythrocytes using Ac-WLA-AMC as substrate by fluorescence assay. Type of experiment: cell-based.

The target of experiment [3] is Cathepsin B (Homo sapiens) (UniProt P07858). In words: Inhibition of human purified cathepsin B at 100 uM.
Experiment [4] deals with Procathepsin L (Homo sapiens) (UniProt P07711). The experiment can be described thus: Inhibition of human purified cathepsin L at 100 uM.
Experiment [5] concerns the target T2, Coagulation factor XII (Homo sapiens) (UniProt P00748).
T2 sequence (whole entry): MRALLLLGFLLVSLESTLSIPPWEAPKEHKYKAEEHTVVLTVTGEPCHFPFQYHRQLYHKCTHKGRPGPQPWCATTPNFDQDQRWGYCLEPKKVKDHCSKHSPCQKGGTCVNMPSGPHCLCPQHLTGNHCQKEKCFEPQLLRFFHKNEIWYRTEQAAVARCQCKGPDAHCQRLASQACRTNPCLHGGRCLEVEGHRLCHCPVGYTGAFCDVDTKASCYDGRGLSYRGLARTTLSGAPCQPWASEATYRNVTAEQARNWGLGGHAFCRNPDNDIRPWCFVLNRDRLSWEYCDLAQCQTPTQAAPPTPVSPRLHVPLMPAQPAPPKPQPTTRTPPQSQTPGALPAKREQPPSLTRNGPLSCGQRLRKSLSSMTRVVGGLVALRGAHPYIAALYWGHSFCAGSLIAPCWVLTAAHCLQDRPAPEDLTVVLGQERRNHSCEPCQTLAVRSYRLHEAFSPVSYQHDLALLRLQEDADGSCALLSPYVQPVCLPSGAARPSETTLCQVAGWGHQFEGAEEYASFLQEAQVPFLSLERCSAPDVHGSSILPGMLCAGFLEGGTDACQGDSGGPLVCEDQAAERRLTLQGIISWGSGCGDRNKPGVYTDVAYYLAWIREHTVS
In words: Inhibition of human purified coagulation factor 12a at 100 uM.

Experiment [6] is filed under the species Homo sapiens. The experiment can be described thus: Inhibition of human purified chymotrypsin at 100 uM.
For experiment [7], the species on record is Homo sapiens. The experiment can be described thus: Inhibition of human purified elastase at 100 uM.
Experiment [8] addresses Plasminogen (Homo sapiens) (UniProt P00747). In words: Inhibition of human purified plasmin at 100 uM.
Experiment [9] has as its target Prothrombin (Homo sapiens) (UniProt P00734). The experiment can be described thus: Inhibition of human purified thrombin at 100 uM.
For experiment [10], the target named is Tissue-type plasminogen activator (Homo sapiens) (UniProt P00750). In words: Inhibition of human purified tissue-type plasminogen activator at 100 uM.
The target in experiment [11] is Trypsin (Homo sapiens) (UniProt P07477+P07478+P35030). In words: Inhibition of human purified trypsin at 100 uM. Type of experiment: protein assay.
The target of experiment [12] is T3, Calpain-1 catalytic subunit (Homo sapiens) (UniProt P07384).
T3 sequence (whole entry): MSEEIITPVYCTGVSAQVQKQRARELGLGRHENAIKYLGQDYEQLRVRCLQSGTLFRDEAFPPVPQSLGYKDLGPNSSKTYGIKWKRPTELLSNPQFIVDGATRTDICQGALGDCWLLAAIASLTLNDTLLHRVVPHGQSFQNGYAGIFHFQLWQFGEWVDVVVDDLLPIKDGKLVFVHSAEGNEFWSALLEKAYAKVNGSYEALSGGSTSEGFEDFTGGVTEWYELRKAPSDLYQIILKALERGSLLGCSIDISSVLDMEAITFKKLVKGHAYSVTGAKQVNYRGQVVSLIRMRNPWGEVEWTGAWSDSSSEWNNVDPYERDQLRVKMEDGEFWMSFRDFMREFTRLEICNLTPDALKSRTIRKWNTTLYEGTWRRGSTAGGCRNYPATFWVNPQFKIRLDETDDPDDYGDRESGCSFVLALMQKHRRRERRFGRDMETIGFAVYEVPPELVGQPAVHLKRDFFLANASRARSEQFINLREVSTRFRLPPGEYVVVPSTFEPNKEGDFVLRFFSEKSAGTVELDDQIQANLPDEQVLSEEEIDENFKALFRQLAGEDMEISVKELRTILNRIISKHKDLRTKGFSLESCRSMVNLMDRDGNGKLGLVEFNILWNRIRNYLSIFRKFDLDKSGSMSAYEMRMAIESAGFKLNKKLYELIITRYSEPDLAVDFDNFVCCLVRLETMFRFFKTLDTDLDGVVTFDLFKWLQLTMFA
In words: Inhibition of human purified calpain 1 at 100 uM.

The target of experiment [13] is T1, Proteasome Macropain subunit MB1. In words: Inhibition of 26S proteasome beta5 subunit in human Calu6 cells using Suc-LLVY-aminoluciferin as substrate after 1hr by luminescence assay. The class given is cell-based, Calu-6.

Sequence of Tissue-type plasminogen activator (Homo sapiens) (P00750 36-562 limits assumed): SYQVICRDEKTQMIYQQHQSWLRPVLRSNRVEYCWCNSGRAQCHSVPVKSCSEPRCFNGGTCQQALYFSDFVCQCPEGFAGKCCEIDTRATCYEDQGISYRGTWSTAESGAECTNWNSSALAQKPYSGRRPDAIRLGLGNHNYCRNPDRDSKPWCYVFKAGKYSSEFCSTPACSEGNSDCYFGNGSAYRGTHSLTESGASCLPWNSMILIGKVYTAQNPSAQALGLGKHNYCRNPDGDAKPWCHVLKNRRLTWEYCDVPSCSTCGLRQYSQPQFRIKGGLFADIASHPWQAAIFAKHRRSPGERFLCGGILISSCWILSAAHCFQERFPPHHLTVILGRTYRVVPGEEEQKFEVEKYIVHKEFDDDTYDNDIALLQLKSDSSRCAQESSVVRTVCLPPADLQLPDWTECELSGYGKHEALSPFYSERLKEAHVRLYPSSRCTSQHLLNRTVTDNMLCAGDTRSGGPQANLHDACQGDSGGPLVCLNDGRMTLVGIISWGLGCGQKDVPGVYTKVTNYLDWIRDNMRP
Sequence of Procathepsin L (Homo sapiens) (P07711 114-333 limits assumed): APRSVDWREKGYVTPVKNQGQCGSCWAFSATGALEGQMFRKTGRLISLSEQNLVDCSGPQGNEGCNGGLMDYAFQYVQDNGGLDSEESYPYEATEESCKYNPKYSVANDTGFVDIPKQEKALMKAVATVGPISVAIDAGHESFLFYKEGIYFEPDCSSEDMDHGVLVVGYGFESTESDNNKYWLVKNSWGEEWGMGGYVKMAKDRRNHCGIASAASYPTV
Sequence of Plasminogen (Homo sapiens) (P00747 97-580 limits assumed): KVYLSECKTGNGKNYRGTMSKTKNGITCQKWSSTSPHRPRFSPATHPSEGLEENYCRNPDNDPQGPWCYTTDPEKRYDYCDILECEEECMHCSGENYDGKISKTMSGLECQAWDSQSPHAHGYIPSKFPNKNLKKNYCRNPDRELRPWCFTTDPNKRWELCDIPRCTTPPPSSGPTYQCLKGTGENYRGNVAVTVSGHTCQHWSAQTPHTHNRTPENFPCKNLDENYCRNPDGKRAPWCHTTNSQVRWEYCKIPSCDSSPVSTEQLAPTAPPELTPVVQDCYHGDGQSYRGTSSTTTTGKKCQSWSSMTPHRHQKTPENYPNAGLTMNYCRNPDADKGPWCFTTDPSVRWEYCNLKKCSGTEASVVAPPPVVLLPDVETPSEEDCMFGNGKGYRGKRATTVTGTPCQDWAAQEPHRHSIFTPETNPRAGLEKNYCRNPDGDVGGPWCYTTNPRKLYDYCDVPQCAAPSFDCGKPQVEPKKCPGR
Sequence of Plasminogen (Homo sapiens) (P00747 581-810 limits assumed): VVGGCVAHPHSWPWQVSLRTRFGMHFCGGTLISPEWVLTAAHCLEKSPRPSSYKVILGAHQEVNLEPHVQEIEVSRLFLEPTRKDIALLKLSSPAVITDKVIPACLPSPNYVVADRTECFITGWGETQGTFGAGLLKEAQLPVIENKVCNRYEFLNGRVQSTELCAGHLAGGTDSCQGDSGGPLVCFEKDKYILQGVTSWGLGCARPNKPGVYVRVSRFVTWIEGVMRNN

Take `CC(C)(C)CNC(=O)C[C@H](NC(=O)C(=O)c1c[nH]c2ccccc12)C(=O)N[C@@H](CCc1ccccc1)C(=O)NCc1ccccc1`: in [1], the CC50 came out at 2.6 nM.

Regarding `CC(C)(C)CNC(=O)C[C@H](NC(=O)c1ccc(OCc2ccccc2)cc1)C(=O)N[C@@H](CCc1ccccc1)C(=O)NCc1ccccc1Cl`, the CC50 in experiment [1] came out at 4.7 nM.

On to `CC(C)(C)CNC(=O)C[C@H](NC(=O)c1ccc(C(C)(C)C)cc1)C(=O)N[C@@H](CCc1ccccc1)C(=O)NCc1ccccc1`, for which the CC50 in [1] was 31 nM.

The compound `Cc1ccc(CNC(=O)[C@H](CCc2ccccc2)NC(=O)[C@H](CNC(=O)CC(C)(C)C)NC(=O)CCc2ccccc2)cc1` gave an IC50 in experiment [2] of more than 1000 nM.

As for `C[C@H](NC(=O)[C@H](CC(=O)NCC(C)(C)C)NC(=O)CCc1ccccc1)C(=O)NCc1ccccc1Cl`, the CC50 in experiment [1] is 39 nM.

As for `Cc1cc(C(=O)N[C@@H](CC(=O)NCC(C)(C)C)C(=O)N[C@@H](CCc2ccccc2)C(=O)NCc2ccccc2Cl)no1`, the CC50 in experiment [1] worked out at 41 nM. The inhibition entry in [3], in experiment [4], in experiment [5], in [6], in experiment [7] and in experiment [8] was “inactive” throughout. Moreover, the inhibition result in [9], in experiment [10], in [11] and in experiment [12] was “inactive” each time.

In [2], `Cc1ccc(CNC(=O)[C@H](CCc2ccccc2)NC(=O)[C@H](CNC(=O)CC(C)(C)C)NC(=O)c2cc(C)on2)cc1` registered an IC50 of more than 1000 nM.

As to `Cc1cc(C(=O)N[C@@H](CC(=O)NCC(C)(C)C)C(=O)N[C@@H](Cc2cccnc2)C(=O)NCc2ccccc2Cl)no1`, in [1], the CC50 is 170 nM.

With `Cc1ccc(CNC(=O)[C@H](CCc2ccccc2)NC(=O)[C@H](CCc2ccccc2)NC(=O)[C@H](CCc2ccccc2)NC(=O)c2cnc(C)cn2)cc1`, the 50% inhibitory concentration (IC50) in experiment [2] is 16 nM; in experiment [13], 53 nM. The CC50 in experiment [1] was 130 nM.

As to `Cc1ccc(CNC(=O)[C@H](CCc2ccccc2)NC(=O)[C@H](Cc2nc(C(C)(C)C)no2)NC(=O)C(=O)c2c[nH]c3ccccc23)cc1`, the IC50 in experiment [2] was 11.6 nM; in experiment [13] it was 30 nM. Also, the CC50 in experiment [1] was 36 nM.

Consider `CC(C)(C)CNC(=O)C[C@H](NC(=O)CCc1ccccc1)C(=O)N[C@@H](Cc1cccnc1)C(=O)NCc1ccccc1Cl`, for which the CC50 in [1] was determined as 61 nM.

Consider `Cc1cc(C(=O)N[C@@H](CC(=O)NCC(C)(C)C)C(=O)N[C@@H](C)C(=O)NCc2ccccc2Cl)no1`, for which the CC50 in experiment [1] was 200 nM.

`CC(C)(C)CNC(=O)C[C@H](NC(=O)C(=O)c1c[nH]c2ccccc12)C(=O)N[C@@H](Cc1ccncc1)C(=O)NCc1ccccc1Cl`: the CC50 in experiment [1] was 6 nM.

With `Cc1cc(C(=O)N[C@@H](CC(=O)NCC(C)(C)C)C(=O)N[C@@H](Cc2ccncc2)C(=O)NCc2ccccc2Cl)no1`, the CC50 in experiment [1] came to 210 nM.

Take `CC(C)(C)CNC(=O)C[C@H](NC(=O)CN1CCCCC1)C(=O)N[C@@H](CCc1ccccc1)C(=O)NCc1ccccc1`: the CC50 in experiment [1] is 180 nM.

For the compound `Cc1cc(C(=O)N[C@@H](CC(=O)NCC(C)(C)C)C(=O)N[C@@H](CCc2ccccc2)C(=O)NCc2ccccc2)no1`, the CC50 in [1] was determined as 27 nM.

Regarding `CC(C)(C)CNC(=O)C[C@H](NC(=O)Cc1ccc(F)cc1)C(=O)N[C@@H](CCc1ccccc1)C(=O)NCc1ccccc1Cl`, in experiment [1], the CC50 came out at 94 nM.

With `CC(C)C[C@H](NC(=O)CNC(=O)c1cc(Cl)ccc1Cl)B(O)O` [IXAZOMIB], the CC50 in [1] stood at 14 nM.

`CC(C)(C)CNC(=O)C[C@H](NC(=O)Cc1ccc(F)cc1)C(=O)N[C@@H](CCc1ccccc1)C(=O)NCc1ccccc1`: the CC50 in experiment [1] was determined as 120 nM.

Take `Cc1cc(C(=O)N[C@@H](CC(=O)NCC(C)(C)C)C(=O)N[C@@H](Cc2ccc(Cl)cc2)C(=O)NCc2ccccc2Cl)no1`: in experiment [2], the IC50 turned out to be 16 nM. Besides, in [1], the CC50 came out at 1100 nM.

In experiment [2], `Cc1ccc(CNC(=O)[C@H](CCc2ccccc2)NC(=O)[C@H](CNC(=O)CC(C)(C)C)NC(=O)C(=O)c2c[nH]c3ccccc23)cc1` displayed an IC50 of 910 nM. This lies in the sub-micromolar range.

As to `CC(C)(C)CNC(=O)C[C@H](NC(=O)C(C)(C)C)C(=O)N[C@@H](CCc1ccccc1)C(=O)NCc1ccccc1`, the CC50 in experiment [1] was found to be 210 nM.

Consider `CC(C)(C)CNC(=O)C[C@H](NC(=O)c1ccc(OCc2ccccc2)cc1)C(=O)N[C@@H](CCc1ccccc1)C(=O)NCc1ccccc1`, for which the CC50 in experiment [1] stood at 10 nM.

Turning to `CC(C)(C)CNC(=O)C[C@H](NC(=O)CCc1ccccc1)C(=O)N[C@@H](CCc1ccccc1)C(=O)NCC1CC1`, the IC50 in experiment [2] came to 12 nM; in experiment [13], 360 nM. Moreover, the CC50 in experiment [1] stood at 150 nM.

`Cc1ccc(CNC(=O)[C@H](CCc2ccccc2)NC(=O)[C@H](CC(=O)NCC(C)C)NC(=O)c2cc(C)on2)cc1` gave a half-inhibitory concentration (IC50) in [2] of 7.3 nM. In addition, the CC50 in experiment [1] is 250 nM.

As for `CC(=O)N[C@@H](CC(=O)NCC(C)(C)C)C(=O)N[C@@H](CCc1ccccc1)C(=O)NCc1ccccc1`, in [1], the CC50 came to 890 nM.

For `CC(C)C[C@H](NC(=O)[C@H](Cc1ccccc1)NC(=O)c1cnccn1)B(O)O` [BORTEZOMIB], the CC50 in experiment [1] was 5.2 nM.

On to `Cc1ccc(CNC(=O)[C@H](CCc2ccccc2)NC(=O)[C@H](Cc2nc(C(C)(C)C)no2)NC(=O)c2cc(C)on2)cc1`, for which the results for the IC50 in experiment [2] and in [13] were 93 nM and 1700 nM, respectively. Moreover, the CC50 in experiment [1] came out at 1500 nM.

For `CC(C)(C)CNC(=O)C[C@H](NC(=O)CCc1ccccc1)C(=O)N[C@@H](CCc1ccccc1)C(=O)NCc1ccccc1`, the CC50 in [1] came out at 89 nM.

Take `CC(C)(C)CNC(=O)C[C@H](NC(=O)CCc1ccccc1)C(=O)N[C@@H](CCc1ccccc1)C(=O)NCc1ccccc1Cl`: in experiment [1], the CC50 worked out at 20 nM.

For the compound `CCCNC(=O)C[C@H](NC(=O)c1cc(C)on1)C(=O)N[C@@H](CCc1ccccc1)C(=O)NCc1ccc(C)cc1`, inhibition in experiment [2] was half-maximal at 160 nM (IC50). That is a sub-micromolar value.

Consider `CC(C)(C)CNC(=O)C[C@H](NC(=O)C(=O)c1c[nH]c2ccccc12)C(=O)N[C@@H](CCc1ccccc1)C(=O)NCc1ccccc1Cl`, for which, in experiment [1], the CC50 is 2.4 nM. Further, the inhibition entry in experiment [3], in [4], in experiment [5], in experiment [6], in experiment [7] and in [8] was “inactive” in each case. Besides, the inhibition entry in experiment [9], in [10], in [11] and in [12] was “inactive” each time.
